T/C data for 16 compounds are collected here from PubChem BioAssay AID248 (DTP/NCI, 2004).

SMILES strings stand for the structures. “And” between values parts separate entries of the source, which are not always exact repeats. Equal entries are not always repeated. Toxic doses and inconclusive results are not listed.

The experiment deals with L1210 leukemia ip in BDF1 mice, survival T/C. Description: NCI In Vivo Anticancer Drug Screen. Data for tumor model L1210 Leukemia (intraperitoneal) in B6D2F1 (BDF1) mice. The following applies: endpoint: mean survival time, higher = longer survival. In short, it runs like this: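 Transplanted-tumor mice were given test agent; controls received vehicle only. Survival readings from the two groups were divided (treated over control).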

Where [1] appears, read: dose: 100.0 mg/kg/injection, schedule: Q01DX009 (ip), vehicle: saline with Tween-80.
[2] abbreviates: dose: 100.0 mg/kg/injection, schedule: Q04DX003 (ip), vehicle: saline with Tween-80.
The mark [3] stands for this setting: dose: 200.0 mg/kg/injection, schedule: Q01DX009 (ip), vehicle: saline with Tween-80.
Where [4] appears, read: dose: 200.0 mg/kg/injection, schedule: Q04DX003 (ip), vehicle: saline with Tween-80.
Setting [5] is: dose: 400.0 mg/kg/injection, schedule: Q04DX003 (ip), vehicle: saline with Tween-80.
Where [6] appears, read: dose: 100.0 mg/kg/injection, schedule: Q04DX003 (ip), vehicle: Klucel (hydroxypropylcellulose) (HPC).
The mark [7] stands for this setting: dose: 200.0 mg/kg/injection, schedule: Q04DX003 (ip), vehicle: Klucel (hydroxypropylcellulose) (HPC).
Setting [8] is: dose: 400.0 mg/kg/injection, schedule: Q04DX003 (ip), vehicle: Klucel (hydroxypropylcellulose) (HPC).
[9] abbreviates: dose: 400.0 mg/kg/injection, schedule: Q01DX009 (ip), vehicle: saline with Tween-80.
[10] abbreviates: dose: 5.0 mg/kg/injection, schedule: Q01DX009 (ip), vehicle: Klucel (hydroxypropylcellulose) (HPC).
The mark [11] stands for this setting: dose: 10.0 mg/kg/injection, schedule: Q01DX009 (ip), vehicle: Klucel (hydroxypropylcellulose) (HPC).
Where [12] appears, read: dose: 20.0 mg/kg/injection, schedule: Q01DX009 (ip), vehicle: Klucel (hydroxypropylcellulose) (HPC).
Setting [13] is: dose: 100.0 mg/kg/injection, schedule: Q01DX009 (ip), vehicle: Klucel (hydroxypropylcellulose) (HPC).
Where [14] appears, read: dose: 200.0 mg/kg/injection, schedule: Q01DX009 (ip), vehicle: Klucel (hydroxypropylcellulose) (HPC).
Setting [15] is: dose: 400.0 mg/kg/injection, schedule: Q01DX009 (ip), vehicle: Klucel (hydroxypropylcellulose) (HPC).
The mark [16] stands for this setting: dose: 100.0 mg/kg/injection, schedule: Q01DX001 (ip), vehicle: Klucel (hydroxypropylcellulose) (HPC).
The mark [17] stands for this setting: dose: 200.0 mg/kg/injection, schedule: Q01DX001 (ip), vehicle: Klucel (hydroxypropylcellulose) (HPC).

Consider `COc1ccc(CN(N=O)c2ccc(C(=O)O)cc2)cc1`, for which the T/C is 91 % of control under setting [1]; 110 % of control under setting [2]; 90 % of control under setting [3]; 104 % of control under setting [4]; 105 % of control under setting [5].

As for `NNC(=O)C(Sc1ccccc1)c1ccccc1` (stereo not drawn), the T/C runs as follows: under setting [6], 95 % of control; under setting [7], 98 % of control; under setting [8], 101 % of control.

As for `O=C(Nc1ccc2ccccc2c1)c1ccc(Cl)cc1`, the T/C under setting [1] was 104 % of control and 92 % of control; the T/C (dose: 100.0 mg/kg/injection, schedule: Q04DX002 (ip), vehicle: saline with Tween-80) is 94 % of control and 97 % of control; the T/C under setting [2] is 97 % of control; the T/C under setting [3] is 97 % of control and 98 % of control; the T/C (dose: 200.0 mg/kg/injection, schedule: Q04DX002 (ip), vehicle: saline with Tween-80) is 100 % of control and 101 % of control; the T/C under setting [4] was 101 % of control. For the same compound, the T/C was 95 % of control and 111 % of control under setting [9]; 89 % of control and 90 % of control (dose: 400.0 mg/kg/injection, schedule: Q04DX002 (ip), vehicle: saline with Tween-80); 97 % of control under setting [5].

Turning to `CCC1(CC)OC2=C(CC(C#N)(C#N)C(C#N)(C#N)C2)O1`, the T/C is 104 % of control under setting [10]; 102 % of control (dose: 10.0 mg/kg/injection, schedule: Q01DX001 (ip), vehicle: saline); 105 % of control under setting [11]; 89 % of control (dose: 20.0 mg/kg/injection, schedule: Q01DX001 (ip), vehicle: saline); 102 % of control under setting [12].

For `CCOC(=O)c1[nH]c2c(c1CC(CC)[N+](=O)[O-])CCCC2` (stereo not drawn), the T/C was 96 % of control under setting [13]; 93 % of control under setting [6]; 98 % of control under setting [14]; 93 % of control under setting [7]; 101 % of control under setting [15]; 95 % of control under setting [8].

For the compound `CC(=O)CC(=O)NCCCN1CCCCC1`, the T/C (dose: 12.5 mg/kg/injection, schedule: Q01DX009 (ip), vehicle: saline with Tween-80) was 103 % of control; the T/C (dose: 12.5 mg/kg/injection, schedule: Q04DX003 (ip), vehicle: saline with Tween-80) was 103 % of control; the T/C (dose: 25.0 mg/kg/injection, schedule: Q01DX009 (ip), vehicle: saline with Tween-80) was 100 % of control; the T/C (dose: 25.0 mg/kg/injection, schedule: Q04DX003 (ip), vehicle: saline with Tween-80) is 106 % of control; the T/C (dose: 50.0 mg/kg/injection, schedule: Q04DX003 (ip), vehicle: saline with Tween-80) is 97 % of control and 103 % of control.

Consider `Cc1ncc(C#N)n1C(C)c1ccccc1` (stereo not drawn), for which the T/C is 103 % of control under setting [16] and 100 % of control under setting [17].

In the case of `O=C(O)CCCCCCCCCCCO`, the T/C is, setting by setting: under setting [6], 100 % of control; under setting [7], 97 % of control; under setting [8], 91 % of control.

For the compound `Cn1c(CCN=C(N)CSS(=O)(=O)O)nc2ccccc21`, the T/C was 91 % of control (dose: 50.0 mg/kg/injection, schedule: Q04DX002 (ip), vehicle: Klucel (hydroxypropylcellulose) (HPC)); 105 % of control (dose: 100.0 mg/kg/injection, schedule: Q04DX002 (ip), vehicle: Klucel (hydroxypropylcellulose) (HPC)); 105 % of control and 112 % of control (dose: 200.0 mg/kg/injection, schedule: Q04DX002 (ip), vehicle: Klucel (hydroxypropylcellulose) (HPC)).

With `BrCc1ccc(-c2ccccc2)cc1`, the T/C is 96 % of control under setting [10]; 92 % of control (dose: 5.0 mg/kg/injection, schedule: Q04DX003 (ip), vehicle: Klucel (hydroxypropylcellulose) (HPC)); 93 % of control under setting [11]; 97 % of control (dose: 10.0 mg/kg/injection, schedule: Q04DX003 (ip), vehicle: Klucel (hydroxypropylcellulose) (HPC)); 98 % of control under setting [12]; 93 % of control (dose: 20.0 mg/kg/injection, schedule: Q04DX003 (ip), vehicle: Klucel (hydroxypropylcellulose) (HPC)).

`O=C(Cc1ccc([N+](=O)[O-])cc1)c1ccccc1`: the T/C under setting [16] was 95 % of control; the T/C under setting [13] is 102 % of control; the T/C (dose: 100.0 mg/kg/injection, schedule: Q01DX009 (ip), vehicle: saline) was 108 % of control; the T/C under setting [6] was 97 % of control; the T/C under setting [17] was 88 % of control; the T/C under setting [14] is 103 % of control. Further, the T/C (dose: 200.0 mg/kg/injection, schedule: Q01DX009 (ip), vehicle: saline) is 102 % of control; the T/C under setting [7] is 97 % of control; the T/C (dose: 400.0 mg/kg/injection, schedule: Q01DX001 (ip), vehicle: Klucel (hydroxypropylcellulose) (HPC)) was 90 % of control; the T/C under setting [15] is 94 % of control; the T/C (dose: 400.0 mg/kg/injection, schedule: Q01DX009 (ip), vehicle: saline) is 97 % of control; the T/C under setting [8] was 101 % of control.

With `N#CCc1ccc(NN)cc1`, the T/C reads like this: (dose: 75.0 mg/kg/injection, schedule: Q01DX009 (ip), vehicle: other) 93 % of control; (dose: 150.0 mg/kg/injection, schedule: Q01DX009 (ip), vehicle: other) 95 % of control.

As for `Cn1cnc2c(SCc3ccccc3)ncnc21`, the T/C runs as follows: (dose: 75.0 mg/kg/injection, schedule: Q01DX009 (ip), vehicle: saline with Tween-80) 97 % of control; under setting [1], 104 % of control; under setting [3], 117 % of control.

Turning to `CCCCCCCCCCCC(=O)Nc1cc(C(C)C)ccc1C`, the T/C (dose: 100.0 mg/kg/injection, schedule: Q01DX001 (ip), vehicle: saline) was 87 % of control; the T/C (dose: 100.0 mg/kg/injection, schedule: Q04DX003 (ip), vehicle: saline) was 88 % of control; the T/C (dose: 200.0 mg/kg/injection, schedule: Q01DX001 (ip), vehicle: saline) was 86 % of control; the T/C (dose: 400.0 mg/kg/injection, schedule: Q01DX001 (ip), vehicle: saline) was 91 % of control.

For the compound `CCC(=O)c1cc([N+](=O)[O-])ccc1NC(C)=O`, the T/C was 97 % of control under setting [1], 94 % of control under setting [3] and 94 % of control under setting [9].

With `[N-]=[N+]=CC(=O)NCC(=O)NO`, the T/C by setting is: (dose: 50.0 mg/kg/injection, schedule: Q01DX001 (ip), vehicle: water) 117 % of control; (dose: 75.0 mg/kg/injection, schedule: Q01DX009 (ip), vehicle: water) 95 % of control; (dose: 100.0 mg/kg/injection, schedule: Q01DX001 (ip), vehicle: water) 96 % of control; (dose: 100.0 mg/kg/injection, schedule: Q01DX009 (ip), vehicle: other) 100 % of control; (dose: 150.0 mg/kg/injection, schedule: Q01DX009 (ip), vehicle: water) 120 % of control; (dose: 180.0 mg/kg/injection, schedule: Q01DX001 (ip), vehicle: water) 116 % of control. For the same compound, the T/C is 102 % of control (dose: 200.0 mg/kg/injection, schedule: Q01DX001 (ip), vehicle: water); 101 % of control (dose: 200.0 mg/kg/injection, schedule: Q01DX009 (ip), vehicle: other); 110 % of control (dose: 270.0 mg/kg/injection, schedule: Q01DX001 (ip), vehicle: water); 155 % of control (dose: 270.0 mg/kg/injection, schedule: Q01DX009 (ip), vehicle: water); 111 % of control (dose: 300.0 mg/kg/injection, schedule: Q01DX009 (ip), vehicle: other); 123 % of control (dose: 300.0 mg/kg/injection, schedule: Q01DX009 (ip), vehicle: water). Further, the T/C was 108 % of control and 111 % of control and 113 % of control (dose: 400.0 mg/kg/injection, schedule: Q01DX001 (ip), vehicle: water); 150 % of control (dose: 450.0 mg/kg/injection, schedule: Q01DX008 (ip), vehicle: water); 97 % of control (dose: 500.0 mg/kg/injection, schedule: Q01DX009 (ip), vehicle: other); 91 % of control (dose: 600.0 mg/kg/injection, schedule: Q01DX009 (ip), vehicle: water); 90 % of control (dose: 1600.0 mg/kg/injection, schedule: Q01DX001 (ip), vehicle: water).
